This is an account of results in patent US20130252935A1, “Monobactams” (PFIZER INC., priority 2010, published 2013).

Values after ≈ are worked out from the molar mass of the structure shown.

Format in all cases: cell-based
Test [1] concerns Klebsiella pneumoniae 1000-02. Briefly: minimum inhibitory concentration (MIC) testing according to CLSI guidelines, Klebsiella pneumoniae. The conditions noted are these: Klebsiella pneumoniae; ciprofloxacin-resistant, ESBL-expressing clinical isolate 1000-02; overnight incubation; lower of duplicate values; read-out: AB-MBT: Klebsiella pneumoniae 1000-02: MIC (MstRcnt). The method, then: (§1) In order to assess the compounds biological activity, the in vitro anti-bacterial activity of selected compounds described in the Examples 1-69 was evaluated by minimum inhibitory concentration (MIC) testing according to Clinical and Laboratory Standards Institute (CLSI, formerly NCCLS) guidelines. See: Clinical and Laboratory Standards Institute. Methods for Dilution Antimicrobial Susceptibility Tests for Bacteria that Grow Aerobically; Approved Standard-Eighth Edition. CLSI document M7-A8 [ISBN 1-56238-689-1]. Clinical and Laboratory Standards Institute, 940 West Valley Road, Suite 1400, Wayne, Pa. 19087-1898 USA, 2006; also Clinical and Laboratory Standards Institute. Performance Standards for Antimicrobial Susceptibility Testing; Twentieth Informational Supplement. CLSI document M100-S20 [ISBN1-56238-716-2]. Clinical and Laboratory Standards Institute.
(§2) The MIC determination is a standard laboratory method for evaluating the antibacterial activity of a compound. The MIC represents the lowest drug concentration that inhibits visible growth of bacteria following overnight incubation. […] Typically, the drug concentration range is broken down into 2-fold increments (e.g. 0.06 μg/mL, 0.12 μg/mL. 0.25 μg/mL, 0.50 μg/mL, 1.0 μg/mL, etc.) and the various drug concentrations are all individually incubated overnight with approximately the same number of bacteria. The MIC is then determined by visually inspecting the drug effect at each concentration, and identifying the lowest drug concentration that has inhibited bacterial growth as compared to the drug free control. Typically, bacteria continue to grow at drug concentrations lower than the MIC and don't grow at concentrations at and above the MIC.
(§3) The MIC values described in Table 1 below were derived from assays wherein each test compound was evaluated in duplicate. In cases where the duplicate values varied by 0-2-fold, the lower of the two values was reported below. Generally speaking, if the duplicate values varied by more than 2-fold, the assay was considered non-valid and was repeated until the variation between duplicate runs was ≦2-fold. In line with the CLSI guidelines referred to above, both control organisms and reference compounds were utilized in each MIC assay to provide proper quality control. MIC values generated with these control organisms and reference compounds were required to fall within a defined range for the assay to be considered valid and be included herein. Those skilled in the art will recognize that MIC values can and do vary from experiment to experiment. Generally speaking, it should be recognized that MIC values often vary +/−2-fold from experiment to experiment. While a single MIC is reported for each compound and each microorganism, the reader should not conclude that each compound was only tested once. Several of the compounds were subjected to multiple tests. The data reported in Table 1 is reflective of the compounds relative activity and different MICs may have been generated on these occasions in light with the guidelines described above.
(§4) The following bacterial strains were used in these MIC determinations:
2) Klebsiella pneumoniae: Ciprofloxacin-resistant isolate, expresses extended-spectrum beta-lactamases (ESBL), clinical isolate, labeled as 1000-02;

The test system of test [2] is Pseudomonas aeruginosa UC-12120. Briefly: minimum inhibitory concentration (MIC) testing according to CLSI guidelines, Pseudomonas aeruginosa. The conditions noted are these: Pseudomonas aeruginosa, UC12120; UC-12120, wild-type, labeled as 1091-05; overnight incubation; lower of duplicate values; read-out: AB-MBT: Pseudomonas aeruginosa 1091-05: MIC (MstRcn). Here is the method: as §1, §2, §3, §4
1) Pseudomonas aeruginosa UC-12120: Wild-type, labeled as 1091-05;

Test [3] deals with Acinetobacter baumannii/haemolyticus AB-3167. Briefly: minimum inhibitory concentration (MIC) testing according to CLSI guidelines, Acinetobacter. The conditions noted are these: Acinetobacter baumannii; multidrug-resistant clinical isolate AB-3167; overnight incubation; lower of duplicate values; read-out: AB-MBT: Acinetobacter baumanii AB-3167: MIC (MstRcnt). Here is the method:
as §1, §2, §3, §4
3) Acinetobacter baumannii/haemolyticus: Multidrug-resistant clinical isolate, labeled as AB-3167.

As to `CC(C)(O/N=C(\C(=O)N[C@@H]1C(=O)N(S(=O)(=O)O)[C@@H]1CNC(=O)NCc1cc(=O)c(O)cn1O)c1nc(N)sc1Cl)C(=O)O` [Example 29, 2-({[(1Z)-1-(2-amino-5-chloro-1,3-thiazol-4-yl)-2-({(2R,3S)-2-[({[(1,5-dihydroxy-4-oxo-1,4-dihydropyridin-2-yl)methyl]carbamoyl}amino)methyl]-4-oxo-1-sulfoazetidin-3-yl}amino)-2-oxoethylidene]amino}oxy)-2-methylpropanoic acid], the MIC in test [1] is 1 µg/mL (≈ 1.5 µM); in test [2], 0.25 µg/mL (≈ 0.375 µM); in test [3] it was 0.5 µg/mL (≈ 0.75 µM).

Regarding `CC(C)(O/N=C(\C(=O)N[C@@H]1C(=O)N(S(=O)(=O)O)[C@@H]1Cn1cc(-c2cc(=O)c(O)c[nH]2)nn1)c1csc(N)n1)C(=O)O` [Example 2, 2-({[(1Z)-1-(2-amino-1,3-thiazol-4-yl)-2-{[(2R,3S)-2-{[4-(5-hydroxy-4-oxo-1,4-dihydropyridin-2-yl)-1H-1,2,3-triazol-1-yl]methyl}-4-oxo-1-sulfoazetidin-3-yl]amino}-2-oxoethylidene]amino}oxy)-2-methylpropanoic acid], the MIC in test [1] was 8 µg/mL (≈ 13.1 µM); in test [2], 2 µg/mL (≈ 3.27 µM); in test [3], 8 µg/mL (≈ 13.1 µM).

In the case of `Nc1nc(/C(=N/OC2(C(=O)O)CCC2)C(=O)N[C@@H]2C(=O)N(S(=O)(=O)O)[C@@H]2CNC(=O)NCc2cc(=O)c(O)cn2O)cs1` [Example 30, 1-({[(1Z)-1-(2-amino-1,3-thiazol-4-yl)-2-({(2R,3S)-2-[({[(1,5-dihydroxy-4-oxo-1,4-dihydropyridin-2-yl)methyl]carbamoyl}amino)methyl]-4-oxo-1-sulfoazetidin-3-yl}amino)-2-oxoethylidene]amino}oxy)cyclobutanecarboxylic acid], the MIC in test [1] amounted to 0.125 µg/mL (≈ 0.194 µM); in test [2], 0.125 µg/mL (≈ 0.194 µM); in test [3], 0.25 µg/mL (≈ 0.388 µM).

As to `CC(C)(O/N=C(\C(=O)N[C@@H]1C(=O)N(S(=O)(=O)O)[C@@H]1CNC(=O)CCC(=O)NCc1cc(=O)c(O)cn1O)c1csc(N)n1)C(=O)O` [Example 42, 2-({[(1Z)-1-(2-amino-1,3-thiazol-4-yl)-2-{[(2R,3S)-2-{[(4-{[(1,5-dihydroxy-4-oxo-1,4-dihydropyridin-2-yl)methyl]amino}-4-oxobutanoyl)amino]methyl}-4-oxo-1-sulfoazetidin-3-yl]amino}-2-oxoethylidene]amino}oxy)-2-methylpropanoic acid], the MIC stood at 0.5 µg/mL (≈ 0.726 µM) in test [1], 0.125 µg/mL (≈ 0.182 µM) in test [2] and 0.125 µg/mL (≈ 0.182 µM) in test [3].

With `CC(C)(O/N=C(\C(=O)N[C@@H]1C(=O)N(S(=O)(=O)O)[C@@H]1CNc1ccc(C(=O)NCc2cc(=O)c(O)cn2O)cn1)c1csc(N)n1)C(=O)O` [Example 46, 2-({[(1Z)-1-(2-amino-1,3-thiazol-4-yl)-2-{[(2R,3S)-2-{[(5-{[(1,5-dihydroxy-4-oxo-1,4-dihydropyridin-2-yl)methyl]carbamoyl}pyridin-2-yl)amino]methyl}-4-oxo-1-sulfoazetidin-3-yl]amino}-2-oxoethylidene]amino}oxy)-2-methylpropanoic acid], the MIC in test [1] was 2 µg/mL (≈ 2.82 µM); in test [2], 0.25 µg/mL (≈ 0.352 µM); in test [3] it was 0.5 µg/mL (≈ 0.705 µM).

`CC(C)(O/N=C(\C(=O)N[C@@H]1C(=O)N(S(=O)(=O)O)[C@@H]1CNC(=O)c1cc(-c2cc(=O)c(O)cn2O)on1)c1csc(N)n1)C(=O)O` [Example 16, 2-({[(1Z)-1-(2-amino-1,3-thiazol-4-yl)-2-({(2R,3S)-2-[({[5-(1,5-dihydroxy-4-oxo-1,4-dihydropyridin-2-yl)isoxazol-3-yl]carbonyl}amino)methyl]-4-oxo-1-sulfoazetidin-3-yl}amino)-2-oxoethylidene]amino}oxy)-2-methylpropanoic acid]: the minimal inhibitory concentration (MIC) worked out at 0.5 µg/mL (≈ 0.746 µM) in test [1], 0.25 µg/mL (≈ 0.373 µM) in test [2] and 1 µg/mL (≈ 1.49 µM) in test [3].

Take `C[C@@H](NC(=O)NCc1cc(=O)c(O)cn1O)C(=O)NC[C@@H]1[C@H](NC(=O)/C(=N\OC(C)(C)C(=O)O)c2csc(N)n2)C(=O)N1S(=O)(=O)O` [Example 49, 2-({[(1Z)-1-(2-amino-1,3-thiazol-4-yl)-2-{[(2R,3S)-2-{[(N-{[(1,5-dihydroxy-4-oxo-1,4-dihydropyridin-2-yl)methyl]carbamoyl}-D-alanyl)amino]methyl}-4-oxo-1-sulfoazetidin-3-yl]amino}-2-oxoethylidene]amino}oxy)-2-methylpropanoic acid]: the MIC in test [1], in test [2] and in test [3] was 0.5 µg/mL (≈ 0.711 µM) each time.

On to `CC(C)(O/N=C(\C(=O)N[C@@H]1C(=O)N(S(=O)(=O)O)[C@@H]1CNS(=O)(=O)c1ccc(C(=O)NCc2cc(=O)c(O)cn2O)cc1)c1csc(N)n1)C(=O)O` [Example 48, 2-({[(1Z)-1-(2-amino-1,3-thiazol-4-yl)-2-{[(2R,3S)-2-({[(4-{[(1,5-dihydroxy-4-oxo-1,4-dihydropyridin-2-yl)methyl]carbamoyl}phenyl)sulfonyl]amino}methyl)-4-oxo-1-sulfoazetidin-3-yl]amino}-2-oxoethylidene]amino}oxy)-2-methylpropanoic acid], for which the minimum inhibitory concentration (MIC) in test [1] came out at 1 µg/mL (≈ 1.29 µM); in test [2] it was 1 µg/mL (≈ 1.29 µM); in test [3] it was 2 µg/mL (≈ 2.59 µM).

Take `CC(C)(O/N=C(\C(=O)N[C@@H]1C(=O)N(S(=O)(=O)O)[C@@H]1CNC(=O)c1cccc(S(=O)(=O)NCc2cc(=O)c(O)cn2O)c1)c1csc(N)n1)C(=O)O` [Example 40, 2-({[(1Z)-1-(2-amino-1,3-thiazol-4-yl)-2-{[(2R,3S)-2-({[3-({[(1,5-dihydroxy-4-oxo-1,4-dihydropyridin-2-yl)methyl]amino}sulfonyl)benzoyl]amino}methyl)-4-oxo-1-sulfoazetidin-3-yl]amino}-2-oxoethylidene]amino}oxy)-2-methylpropanoic acid]: the MIC in test [1] is 0.5 µg/mL (≈ 0.647 µM); in test [2] it was 0.25 µg/mL (≈ 0.324 µM); in test [3], 0.25 µg/mL (≈ 0.324 µM).

Regarding `CC(C)(O/N=C(\C(=O)N[C@@H]1C(=O)N(S(=O)(=O)O)[C@@H]1COC(=O)CNC(=O)c1cc(=O)c(O)cn1O)c1csc(N)n1)C(=O)O` [Example 7, 2-({[(1Z)-1-(2-amino-1,3-thiazol-4-yl)-2-({(2S,3S)-2-[({N-[(1,5-dihydroxy-4-oxo-1,4-dihydropyridin-2-yl)carbonyl]glycyl}oxy)methyl]-4-oxo-1-sulfoazetidin-3-yl}amino)-2-oxoethylidene]amino}oxy)-2-methylpropanoic acid], the MIC in test [1] was determined as 8 µg/mL (≈ 12.1 µM); in test [2], 0.125 µg/mL (≈ 0.189 µM); in test [3], 0.5 µg/mL (≈ 0.756 µM).

With `CC(C)(O/N=C(\C(=O)N[C@@H]1C(=O)N(S(=O)(=O)O)[C@@H]1CNC(=O)c1ccnc(-c2cc(=O)c(O)cn2O)n1)c1csc(N)n1)C(=O)O` [Example 23, 2-({[(1Z)-1-(2-amino-1,3-thiazol-4-yl)-2-({(2R,3S)-2-[({[2-(1,5-dihydroxy-4-oxo-1,4-dihydropyridin-2-yl)pyrimidin-4-yl]carbonyl}amino)methyl]-4-oxo-1-sulfoazetidin-3-yl}amino)-2-oxoethylidene]amino}oxy)-2-methylpropanoic acid], the figures for the MIC in test [1], in test [2] and in test [3] were 0.25 µg/mL (≈ 0.367 µM), 1 µg/mL (≈ 1.47 µM) and 0.25 µg/mL (≈ 0.367 µM), respectively.

For `C[C@H](NC(=O)c1cc(=O)c(O)cn1O)C(=O)NC[C@@H]1[C@H](NC(=O)/C(=N\OC(C)(C)C(=O)O)c2csc(N)n2)C(=O)N1S(=O)(=O)O` [Example 54, 2-({[(1Z)-1-(2-amino-1,3-thiazol-4-yl)-2-({(2R,3S)-2-[({N-[(1,5-dihydroxy-4-oxo-1,4-dihydropyridin-2-yl)carbonyl]-L-alanyl}amino)methyl]-4-oxo-1-sulfoazetidin-3-yl}amino)-2-oxoethylidene]amino}oxy)-2-methylpropanoic acid], the values for the MIC in test [1], in test [2] and in test [3] were 1 µg/mL (≈ 1.48 µM), 0.25 µg/mL (≈ 0.371 µM) and 0.25 µg/mL (≈ 0.371 µM), respectively.

Usually MIC stands for the lowest concentration that inhibits growth of the organism.
